According to patent US20250230171A1 (MOMA Therapeutics, Inc., priority 2023, published 2025):
pIC50: −log10 of the molar value. Read-outs that look alike come from different tables or passages of the source.

How the values were obtained:
[1] = molecular target: biotinylated Avi-POLθ[2-894] (Homo sapiens (Human), UniProt O75417); experiment: POLθ ATPase assay (ADP-Glo); details: n=2, read-out: Biochemical ATPase ADPGlo IC50
[2] = system: DLD1 BRCA2 (−/−) cells; experiment: 7-day cell viability assay (CellTiter-Glo), DLD1 BRCA2 (−/−); type: cell-based, human; details: n=2, read-out: Viability IC50 (uM) DLD1 BRCA2 null
Procedure, shortened: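 7-day growth assay in DLD1 cells with or without BRCA2; seeding densities chosen to keep log-linear growth. Compound: 10 uM top, 3-fold, 9 points. Endpoint: CTG ATP luminescence at RT.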

[3] = system: DLD1 WT cells; experiment: 7-day cell viability assay (CellTiter-Glo), DLD1 parental (WT); type: cell-based, human; details: n=2
[4] = Homo sapiens, DLD-1, 168 h, 7-day viability
[5] = Homo sapiens, DLD-1, 168 h, 7-day CellTiter-Glo

Chain of biotinylated Avi-POLθ[2-894] (O75417 2-894): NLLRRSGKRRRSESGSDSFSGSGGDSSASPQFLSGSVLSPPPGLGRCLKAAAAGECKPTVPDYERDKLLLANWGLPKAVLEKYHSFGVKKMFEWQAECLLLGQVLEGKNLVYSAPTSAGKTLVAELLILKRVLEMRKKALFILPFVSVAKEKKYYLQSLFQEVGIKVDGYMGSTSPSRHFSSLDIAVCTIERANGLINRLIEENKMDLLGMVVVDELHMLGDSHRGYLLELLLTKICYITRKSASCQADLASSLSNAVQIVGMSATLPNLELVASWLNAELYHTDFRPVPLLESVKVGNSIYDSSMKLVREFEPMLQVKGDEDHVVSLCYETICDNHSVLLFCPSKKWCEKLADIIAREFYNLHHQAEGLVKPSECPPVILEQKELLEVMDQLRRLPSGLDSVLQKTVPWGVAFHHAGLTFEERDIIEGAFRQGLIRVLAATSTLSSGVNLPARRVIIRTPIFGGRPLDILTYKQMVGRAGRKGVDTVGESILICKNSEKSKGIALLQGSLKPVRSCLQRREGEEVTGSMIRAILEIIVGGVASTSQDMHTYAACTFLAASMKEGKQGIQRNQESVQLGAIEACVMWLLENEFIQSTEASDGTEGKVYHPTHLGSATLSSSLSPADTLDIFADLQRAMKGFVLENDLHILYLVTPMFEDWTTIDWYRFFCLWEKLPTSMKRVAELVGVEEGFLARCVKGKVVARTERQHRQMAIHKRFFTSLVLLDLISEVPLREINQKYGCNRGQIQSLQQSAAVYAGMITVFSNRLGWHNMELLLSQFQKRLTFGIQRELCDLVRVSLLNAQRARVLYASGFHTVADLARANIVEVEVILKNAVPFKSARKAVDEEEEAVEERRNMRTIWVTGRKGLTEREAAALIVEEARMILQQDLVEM

## COc1cnc(Cl)cc1-c1cc(C)ncc1C(=O)Nc1nc2c(s1)CN(C(=O)C1CCC(OC(F)F)CC1)C2 (stereo not drawn) [Example 2, (Cis and Trans) 2′-chloro-N-(5-(4-(difluoromethoxy)cyclohexane-1-carbonyl)-5,6-dihydro-4H-pyrrolo[3,4-d]thiazol-2-yl)-5′-methoxy-6-methyl-[4,4′-bipyridine]-3-carboxamide]
[1]
  pIC50: 7.82 to 9.00
[2]; [4]
  IC50: 0.001 to 0.1 µM
[3]; [4]
  IC50: ≥ 10 µM

## COc1cnc(Cl)cc1-c1cc(C)ncc1C(=O)Nc1nc2c(s1)CN(C(=O)c1ncc(C(F)(F)F)cc1Cl)C2 [Example 16, 2′-chloro-N-(5-(3-chloro-5-(trifluoromethyl)picolinoyl)-5,6-dihydro-4H-pyrrolo[3,4-d]thiazol-2-yl)-5′-methoxy-6-methyl-[4,4′-bipyridine]-3-carboxamide]
[1]
  pIC50: 7.82 to 9.00
[2]; [4]
  IC50: 0.001 to 0.1 µM
[3]; [4]
  IC50: ≥ 10 µM

## COc1cnc(Cl)cc1-c1cc(C)ncc1C(=O)Nc1nc2c(s1)CN(C(=O)c1cccn3nccc13)C2 [Example 424]
[1]; POLθ ATPase, ADP-Glo
  pIC50: 7.82 to 9.00
[2]; [5]
  IC50: 0.001 to 0.1 µM
[3]; [5]
  IC50: ≥ 10 µM

## COc1cc(Cl)nc(C(=O)N2Cc3nc(NC(=O)c4cnc(C)cc4-c4cc(Cl)ncc4OC)sc3C2)c1
[1]; POLθ ATPase, ADP-Glo
  pIC50: 7.82 to 9.00
[2]; [5]
  IC50: 0.001 to 0.1 µM
[3]; [5]
  IC50: ≥ 10 µM

## COc1cc(C(=O)N2Cc3nc(NC(=O)c4cnc(C)cc4-c4cc(C#N)ccc4OC)sc3C2)ccc1Cl
[1]; POLθ ATPase, ADP-Glo
  pIC50: 7.82 to 9.00
[2]; [5]
  IC50: 0.001 to 0.1 µM
[3]; [5]
  IC50: 5 to 10 µM

## COc1cnc(Cl)cc1-c1cc(C)ncc1C(=O)Nc1nc2c(s1)CN(C(=O)c1cnc(C(F)F)cn1)C2 [Example 40, 2′-chloro-N-(5-(5-(difluoromethyl)pyrazine-2-carbonyl)-5,6-dihydro-4H-pyrrolo[3,4-d]thiazol-2-yl)-5′-methoxy-6-methyl-[4,4′-bipyridine]-3-carboxamide]
[1]
  pIC50: 7.82 to 9.00
[2]; [4]
  IC50: 0.001 to 0.1 µM
[3]; [4]
  IC50: 5 to 10 µM

## COc1cnc(Cl)cc1-c1cc(C)ncc1C(=O)Nc1nc2c(s1)C(C)N(C(=O)c1ccc(C(F)(F)F)nc1OC)C2 (stereo not drawn) [Example 1040, 2′-chloro-5′-methoxy-N-(S-(2-methoxy-6-(trifluoromethyl)nicotinoyl)-6-methyl-5,6-dihydro-4H-pyrrolo[3,4-d]thiazol-2-yl)-6-methyl-[4,4′-bipyridine]-3-carboxamide]
[1]; POLθ ATPase, ADP-Glo
  pIC50: 7.82 to 9.00
[2]; [5]
  IC50: 0.001 to 0.1 µM
[3]; [5]
  IC50: ≥ 10 µM

## COc1cnc(Cl)cc1-c1cc(C)ncc1C(=O)Nc1nc2c(s1)CN(C(=O)C1CC(OC(F)(F)F)C1)C2 (stereo not drawn) [Example 196]
[1]
  pIC50: 7.82 to 9.00
[2]; [4]
  IC50: 0.001 to 0.1 µM
[3]; [4]
  IC50: ≥ 10 µM

## COc1ccc(C#N)cc1-c1cc(C)ncc1C(=O)Nc1nc2c(s1)CN(C(=O)C1CC(CC(F)F)C1)C2 (stereo not drawn)
[1]
  pIC50: 7.82 to 9.00
[2]; [4]
  IC50: 0.5 to 2 µM
[3]; [4]
  IC50: ≥ 10 µM

## COc1cnc(Cl)cc1-c1cc(C)ncc1C(=O)Nc1nc2c(s1)CN(C(=O)c1ccc(OC(F)(F)F)cn1)C2 [Example 394, 2′-chloro-5′-methoxy-6-methyl-N-(5-(5-(trifluoromethoxy)picolinoyl)-5,6-dihydro-4H-pyrrolo[3,4-d]thiazol-2-yl)-[4,4′-bipyridine]-3-carboxamide]
[1]
  pIC50: 7.82 to 9.00
[2]; [4]
  IC50: 0.001 to 0.1 µM
[3]; [4]
  IC50: ≥ 10 µM

## COc1ccc(C#N)cc1-c1cc(C)ncc1C(=O)Nc1nc2c(s1)CN(S(=O)(=O)N1CCOCC1)C2
[1]
  pIC50: 7.82 to 9.00
[2]; [4]
  IC50: ≥ 2 µM
[3]; [4]
  IC50: ≥ 10 µM

## COc1ccc(C#N)cc1-c1cc(C)ncc1C(=O)Nc1nc2c(s1)CN(C(=O)c1ccc(C)cn1)C2 [Example 304]
[1]
  pIC50: 7.82 to 9.00
[2]; [4]
  IC50: 0.1 to 0.25 µM
[3]; [4]
  IC50: ≥ 10 µM

## COc1cnc(Cl)cc1-c1cc(C)ncc1C(=O)Nc1nc2c(s1)CN(C(=O)[C@@H]1CCCOC1)C2
[1]
  pIC50: 7.82 to 9.00
[2]; [4]
  IC50: 0.5 to 2 µM
[3]; [4]
  IC50: ≥ 10 µM

## CCCNS(=O)(=O)N1Cc2nc(NC(=O)c3cnc(C)cc3-c3cc(C#N)ccc3OC)sc2C1 [Example 270]
[1]
  pIC50: 7.82 to 9.00
[2]; [4]
  IC50: 0.5 to 2 µM
[3]; [4]
  IC50: ≥ 10 µM

## COc1cnc(Cl)cc1-c1cc(C)ncc1C(=O)Nc1nc2c(s1)CN(C(=O)c1ncc(C)o1)C2 [Example 45, 2′-chloro-5′-methoxy-6-methyl-N-(5-(5-methyloxazole-2-carbonyl)-5,6-dihydro-4H-pyrrolo[3,4-d]thiazol-2-yl)-[4,4′-bipyridine]-3-carboxamide]
[1]
  pIC50: 7.82 to 9.00
[2]; [4]
  IC50: 0.001 to 0.1 µM
[3]; [4]
  IC50: 2 to 5 µM

## COc1cnc(Cl)cc1-c1cc(C)ncc1C(=O)Nc1nc2c(s1)CN(C(=O)c1ccn(C)n1)C2 [Example 197]
[1]
  pIC50: 7.82 to 9.00
[2]; [4]
  IC50: 0.25 to 0.5 µM
[3]; [4]
  IC50: ≥ 10 µM

## COc1cnc(Cl)cc1-c1cc(C)ncc1C(=O)Nc1nc2c(s1)CN(C(=O)c1cnn(C)c1Cl)C2
[1]
  pIC50: 7.82 to 9.00
[2]; [4]
  IC50: 0.001 to 0.1 µM
[3]; [4]
  IC50: ≥ 10 µM

## COc1cnc(Cl)cc1-c1cc(C)ncc1C(=O)Nc1nc2c(s1)CN(C(=O)c1ccc(C(F)F)nc1)C2 [Example 12, 2′-chloro-N-(5-(6-(difluoromethyl)nicotinoyl)-5,6-dihydro-4H-pyrrolo[3,4-d]thiazol-2-yl)-5′-methoxy-6-methyl-[4,4′-bipyridine]-3-carboxamide]
[1]
  pIC50: 7.82 to 9.00
[2]; [4]
  IC50: 0.001 to 0.1 µM
[3]; [4]
  IC50: ≥ 10 µM

## COc1cnc(Cl)cc1-c1cc(C)ncc1C(=O)Nc1nc2c(s1)CN(C(=O)c1ccnn1C)C2 [Example 170]
[1]
  pIC50: 7.82 to 9.00
[2]; [4]
  IC50: 0.1 to 0.25 µM
[3]; [4]
  IC50: ≥ 10 µM

## COc1ccc(C(=O)N2Cc3nc(NC(=O)c4cnc(C)cc4-c4cc(Cl)ncc4OC)sc3C2)c(OC)n1
[1]; POLθ ATPase, ADP-Glo
  pIC50: 7.82 to 9.00
[2]; [5]
  IC50: 0.001 to 0.1 µM
[3]; [5]
  IC50: 5 to 10 µM

## COc1cnc(Cl)cc1-c1cc(C)ncc1C(=O)Nc1nc2c(s1)CN(C(=O)c1cn(C(C)C)nc1C)C2 [Example 175]
[1]
  pIC50: 7.82 to 9.00
[2]; [4]
  IC50: ≥ 2 µM
[3]; [4]
  IC50: ≥ 10 µM

## COc1cnc(C(=O)N2Cc3nc(NC(=O)c4cnc(C)cc4-c4cc(Cl)ncc4OC)sc3C2)o1 [Example 79, 2′-chloro-5′-methoxy-N-(5-(5-methoxyoxazole-2-carbonyl)-5,6-dihydro-4H-pyrrolo[3,4-d]thiazol-2-yl)-6-methyl-[4,4′-bipyridine]-3-carboxamide]
[1]
  pIC50: 7.82 to 9.00
[2]; [4]
  IC50: 0.001 to 0.1 µM
[3]; [4]
  IC50: 0.5 to 2 µM

## COc1cnc(Cl)cc1-c1cc(C)ncc1C(=O)Nc1nc2c(s1)CN(C(=O)c1ccc(F)c(C(F)F)n1)C2
[1]; POLθ ATPase, ADP-Glo
  pIC50: 7.82 to 9.00
[2]; [5]
  IC50: 0.001 to 0.1 µM
[3]; [5]
  IC50: ≥ 10 µM

## COc1ccccc1-c1cc(C)ncc1C(=O)Nc1nc2c(s1)CN(C(=O)c1ccccc1)CC2
[1]
  pIC50: ≤ 6.05
[2]; [4]
  IC50: 0.5 to 2 µM
[3]; [4]
  IC50: 0.5 to 2 µM

## 2′-chloro-N-(5-(6- (difluoromethoxy)nicotinoyl)-5,6- dihydro-4H-pyrrolo[3,4-d]thiazol-2-yl)- 5′-methoxy-6-methyl-[4,4′-bipyridine]- 3-carboxamide [Example 32]
[1]
  pIC50: 7.82 to 9.00
[2]; 7-day viability
  IC50: 0.001 to 0.1 µM
[3]; 7-day viability
  IC50: 2 to 5 µM

## 4-(5-Cyano-2-methoxyphenyl)-N-(5-(4-(difluoromethyl)-2-methoxybenzoyl)-5,6-dihydro-4H-pyrrolo[3,4-d]thiazol-2-yl)-6-methylnicotinamide [Example 481]
[1]; POLθ ATPase, ADP-Glo
  pIC50: 7.82 to 9.00
[2]; 7-day CellTiter-Glo
  IC50: 0.001 to 0.1 µM
[3]; 7-day CellTiter-Glo
  IC50: ≥ 10 µM

## COc1cnc(Cl)cc1-c1cc(C)ncc1C(=O)Nc1nc2c(s1)CN(C(=O)C1CCCC(OC)C1)C2 (racemic) [Example 128, (Racemic) 2′-chloro-5′-methoxy-N-(5-(3-methoxycyclohexane-1-carbonyl)-5,6-dihydro-4H-pyrrolo[3,4-d]thiazol-2-yl)-6-methyl-[4,4′-bipyridine]-3-carboxamide]
[1]
  pIC50: 7.82 to 9.00
[2]; [4]
  IC50: 0.001 to 0.1 µM
[3]; [4]
  IC50: ≥ 10 µM
